From US9475755B2, “Prophylactic agent for chronic kidney disease” (SBI Pharmaceuticals Co., Ltd., priority 2011, dated 2016)

Columns and labels:
[1] = Administration of radiolabeled ALA (14C-ALA) to research the pharmacokinetics of ALA; format: in vivo
anemia in piglets = conditions: reported in Patent Document 1; cited from earlier work
chronic kidney disease [2] = assay: Example 2: ingestion by a person diagnosed with chronic kidney disease, dose switched 50 mg / 5 mg / 50 mg; format: in vivo, human
Source text: The effects of ingesting aminolevulinic acid phosphate and sodium ferrous citrate were examined for a person diagnosed with chronic kidney disease.

chronic kidney disease [3] = assay: Example 3: ingestion by a person with chronic kidney disease after removal of one kidney; format: in vivo, human; conditions: after ingestion of 150 mg aminolevulinic acid phosphate and 172 mg sodium ferrous citrate per day
Source text: The effects of ingesting aminolevulinic acid phosphate and sodium ferrous citrate were examined for a person diagnosed with chronic kidney disease after removing one of their kidneys about 5 years ago because of cancer.

[4] = (c) after one month of switching to 5 mg aminolevulinic acid phosphate + 5.74 mg sodium ferrous citrate
[5] = (d) after two months of switching to 5 mg aminolevulinic acid phosphate + 5.74 mg sodium ferrous citrate

## NCC(=O)CCC(=O)O [ALA, 5-aminolevulinic acid]
[1]; ALA excessively administered, even if urine is discharged
  retention of radiation in the kidneys: radiation has remained in the kidneys even after the passing of time
[1]; radiolabeled ALA (14C-ALA) administered
  tissue accumulation of ALA-derived radiation: found in not only the anticipated liver and muscles, but also in the kidneys
Anemia in piglets
  prevention of anemia: effective in preventing anemia in piglets

## aminolevulinic acid phosphate
Chronic kidney disease [2]; [4]
  Serum creatinine: 1.14 mg/dL
  Urea nitrogen: 12.90 mg/dL
  eGFR: 50.10 mL/min/1.73 m^2
Chronic kidney disease [2]; [5]
  Serum creatinine: 1.25 mg/dL
  Urea nitrogen: 14.10 mg/dL
  eGFR: 45.30 mL/min/1.73 m^2
Chronic kidney disease [2]; person who ingested aminolevulinic acid phosphate and sodium ferrous citrate
  fatigue / quality of life: relieved from the fatigue peculiar to chronic kidney disease
Chronic kidney disease [2]; when 50 mg of aminolevulinic acid phosphate was ingested
  eGFR value (in words): remarkably improved (increased)
Chronic kidney disease [2]; when once again returned to 50 mg
  eGFR value (in words): remarkable improvement
Chronic kidney disease [2]; when reduced to 5 mg aminolevulinic acid phosphate and 5.74 mg sodium ferrous citrate
  improvement rate of the eGFR value (in words): lowered
Chronic kidney disease [3]
  serum creatinine (FIG. 1, in words): remarkable reduction
